The supplement of paper PMC11451515

Key:
Conditions in all cases: 48 h
SEM cells [1] = assay: AUC of viability dose-response curve (% viability x log10 dose units); higher = less sensitive
In short: (§1)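 Area under the curve was integrated by trapezoidal rule from a log-logistic fit of normalised viability, with curves exceeding full viability scaled and quality-control failures removed. The fit had four parameters over log10 doses. Viability came from CellTiter-Glo One luminescence, normalised per plate to DMSO and cell-free wells, after leukemia cells adapted to each medium (500 or 1000 cells/well, 1536-well plates) were exposed to library compounds in DMSO for 48 h at 37°C. The 11 threefold doses ran from 47 μM to 0.79 nM.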

P12-Ichikawa [2] = assay: as above
In short: as §1

NOMO1 [3] = assay: as above
In short: as §1

SEM cells [4] = assay: cell viability relative to DMSO control; higher = less cytotoxic
In short: (§2)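 Viability was expressed as a per-plate percentage of DMSO wells, with cell-free wells as background. Leukemia cells (NOMO1 or SEM at 500 cells/well, P12-Ichikawa at 1000 cells/well) were adapted for at least four passages in each medium and seeded in 1536-well plates (5 μl). Library compounds in DMSO were pin-dosed over an 11-point threefold series from 47 μM to 0.79 nM, and CellTiter-Glo One luminescence was read after 48 h at 37°C.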

P12-Ichikawa [5] = assay: as above
In short: as §2

NOMO1 [6] = assay: as above
In short: as §2

CCOC(=O)c1c(CSc2ccccc2)n(C)c2cc(Br)c(O)c(CN(C)C)c12
AUC of viability dose-response curve
Conditions	NOMO1 [3]	P12-Ichikawa [2]	SEM cells [1]
HPLM + 10% dialyzed FBS	471	464	463
RPMI 5 mM glucose + 10% FBS	461	461	459
RPMI 5 mM glucose + 10% dialyzed FBS	450	464	469

cell viability [%]
Conditions	NOMO1 [6]	P12-Ichikawa [5]	SEM cells [4]
HPLM + 10% dialyzed FBS, 0.000781 µM	129	121	89.7
HPLM + 10% dialyzed FBS, 0.00234 µM	121	119	94.8
HPLM + 10% dialyzed FBS, 0.00702 µM	114	128	96.4
HPLM + 10% dialyzed FBS, 0.0211 µM	133	126	109
HPLM + 10% dialyzed FBS, 0.0632 µM	127	123	96.2
HPLM + 10% dialyzed FBS, 0.19 µM	128	127	102
HPLM + 10% dialyzed FBS, 0.569 µM	130	118	97.3
HPLM + 10% dialyzed FBS, 1.71 µM	120	115	103
HPLM + 10% dialyzed FBS, 5.12 µM	128	124	82.5
HPLM + 10% dialyzed FBS, 15.4 µM	120	115	108
HPLM + 10% dialyzed FBS, 46.1 µM	104	109	88.6
RPMI 5 mM glucose + 10% FBS, 0.000781 µM	–	118	107
RPMI 5 mM glucose + 10% FBS, 0.00234 µM	–	127	114
RPMI 5 mM glucose + 10% FBS, 0.00702 µM	–	122	109
RPMI 5 mM glucose + 10% FBS, 0.0211 µM	–	126	103
RPMI 5 mM glucose + 10% FBS, 0.0632 µM	–	128	104
RPMI 5 mM glucose + 10% FBS, 0.19 µM	–	123	128
RPMI 5 mM glucose + 10% FBS, 0.569 µM	–	125	125
RPMI 5 mM glucose + 10% FBS, 1.71 µM	–	112	129
RPMI 5 mM glucose + 10% FBS, 5.12 µM	–	112	103
RPMI 5 mM glucose + 10% FBS, 15.4 µM	–	113	101
RPMI 5 mM glucose + 10% FBS, 46.1 µM	–	73.5	63.7
RPMI 5 mM glucose + 10% dialyzed FBS, 0.000781 µM	119	121	94.9
RPMI 5 mM glucose + 10% dialyzed FBS, 0.00234 µM	119	119	114
RPMI 5 mM glucose + 10% dialyzed FBS, 0.00702 µM	124	125	101
RPMI 5 mM glucose + 10% dialyzed FBS, 0.0211 µM	129	129	104
RPMI 5 mM glucose + 10% dialyzed FBS, 0.0632 µM	114	123	111
RPMI 5 mM glucose + 10% dialyzed FBS, 0.19 µM	124	118	97.5
RPMI 5 mM glucose + 10% dialyzed FBS, 0.569 µM	124	127	94.7
RPMI 5 mM glucose + 10% dialyzed FBS, 1.71 µM	129	118	109
RPMI 5 mM glucose + 10% dialyzed FBS, 5.12 µM	108	124	113
RPMI 5 mM glucose + 10% dialyzed FBS, 15.4 µM	92.8	113	109
RPMI 5 mM glucose + 10% dialyzed FBS, 46.1 µM	69.1	76.3	70.5

C[S+](=O)([O-])N1CCN(Cc2cc3nc(-c4cccc5[nH]ncc45)nc(N4CCOCC4)c3s2)CC1
AUC of viability dose-response curve
Conditions	NOMO1 [3]	P12-Ichikawa [2]	SEM cells [1]
HPLM + 10% dialyzed FBS	381	428	356
RPMI 5 mM glucose + 10% FBS	421	420	348
RPMI 5 mM glucose + 10% dialyzed FBS	384	414	348

cell viability [%]
Conditions	HPLM + 10% dialyzed FBS	RPMI 5 mM glucose + 10% FBS	RPMI 5 mM glucose + 10% dialyzed FBS
NOMO1 [6], 0.000781 µM	–	113	–
NOMO1 [6], 0.00234 µM	–	133	–
NOMO1 [6], 0.00702 µM	–	116	–
NOMO1 [6], 0.0211 µM	–	132	–
NOMO1 [6], 0.0632 µM	–	128	–
NOMO1 [6], 0.19 µM	–	133	–
NOMO1 [6], 0.569 µM	–	117	–
NOMO1 [6], 1.71 µM	–	107	–
NOMO1 [6], 5.12 µM	–	80.3	–
NOMO1 [6], 15.4 µM	–	80.6	–
NOMO1 [6], 46.1 µM	–	65.5	–
SEM cells [4], 0.000781 µM	97.5	106	115
SEM cells [4], 0.00234 µM	121	121	122
SEM cells [4], 0.00702 µM	116	129	129
SEM cells [4], 0.0211 µM	111	105	127
SEM cells [4], 0.0632 µM	103	112	110
SEM cells [4], 0.19 µM	92.4	108	106
SEM cells [4], 0.569 µM	82	89	78.6
SEM cells [4], 1.71 µM	74.9	67.4	78
SEM cells [4], 5.12 µM	56.9	46.6	57
SEM cells [4], 15.4 µM	31.7	23.2	42.6
SEM cells [4], 46.1 µM	12.9	8.22	16
